# Like-named read-outs stand apart in the source and are kept apart here.
# Assays:
# MDA-MB-231/ATCC = experiment: NCI-60 SRB growth inhibition, one-dose and five-dose; format: cell-based; details: Homo sapiens; for GI50: MDA-MB-231
# SW-620 = experiment: as above; format: cell-based; details: Homo sapiens; for GI50: SW-620; for inhibition at 10 µM: SW-620, read-out: percent growth inhibition
# SF-295 = experiment: as above; format: cell-based; details: Homo sapiens; for GI50: SF-295; for inhibition at 10 µM: SF-295, read-out: percent growth inhibition
# CNS cancer cell lines = experiment: NCI-60 SRB growth inhibition, subpanel; format: cell-based, human; details: for GI50: Homo sapiens
# Melanoma cell lines = experiment: NCI-60 SRB growth inhibition, subpanel; format: cell-based, human; details: for GI50: Homo sapiens
# M14 = experiment: NCI-60 SRB growth inhibition, one-dose and five-dose; format: cell-based; details: Homo sapiens; for GI50: M14; for inhibition at 10 µM: M14, read-out: percent growth inhibition
# UO-31 = experiment: as above; format: cell-based; details: Homo sapiens; for GI50: UO-31
# RPMI-8226 = experiment: as above; format: cell-based; details: Homo sapiens; for GI50: RPMI-8226; for inhibition at 10 µM: RPMI-8226, read-out: percent growth inhibition
# NCI/ADR-RES = experiment: as above; format: cell-based; details: Homo sapiens
# UACC-257 = experiment: as above; format: cell-based; details: Homo sapiens; for GI50: UACC-257; for inhibition at 10 µM: UACC-257, read-out: percent growth inhibition
# NSCLC cell lines = experiment: NCI-60 SRB growth inhibition, subpanel; format: cell-based, human; details: for GI50: Homo sapiens
# HT29 = experiment: NCI-60 SRB growth inhibition, one-dose and five-dose; format: cell-based; details: Homo sapiens; for GI50: HT-29; for inhibition at 10 µM: HT-29, read-out: percent growth inhibition
# NCI-H23 = experiment: as above; format: cell-based; details: Homo sapiens; for GI50: NCI-H23; for inhibition at 10 µM: NCI-H23, read-out: percent growth inhibition
# [1] = Cytotoxicity towards normal fibroblasts, safety index; format: cell-based, human; details: human, WI-38 normal fibroblast cells
# [2] = test system: WI-38 normal human fibroblast cells; experiment: as above; format: cell-based; details: WI-38 versus cancer cell lines
# 786-0 = experiment: NCI-60 SRB growth inhibition, one-dose and five-dose; format: cell-based; details: Homo sapiens; for GI50: 786-0; for inhibition at 10 µM: 786-0, read-out: percent growth inhibition
# SNB-75 = experiment: as above; format: cell-based; details: Homo sapiens; for GI50: SNB-75; for inhibition at 10 µM: SNB-75, read-out: percent growth inhibition
# Renal cancer cell lines = experiment: NCI-60 SRB growth inhibition, subpanel; format: cell-based, human; details: for GI50: Homo sapiens
# NCI-H460 = experiment: NCI-60 SRB growth inhibition, one-dose and five-dose; format: cell-based; details: Homo sapiens; for GI50: NCI-H460; for inhibition at 10 µM: NCI-H460, read-out: percent growth inhibition
# [3] = test system: Prostate cancer cell lines; experiment: NCI-60 SRB growth inhibition, subpanel; format: cell-based, human; details: for GI50: Homo sapiens
# NCI-H322M = experiment: NCI-60 SRB growth inhibition, one-dose and five-dose; format: cell-based; details: Homo sapiens; for inhibition at 10 µM: read-out: percent growth inhibition
# SK-OV-3 = experiment: as above; format: cell-based; details: Homo sapiens; for GI50: SK-OV-3; for inhibition at 10 µM: SK-OV-3, read-out: percent growth inhibition
# Breast cancer cell lines = experiment: NCI-60 SRB growth inhibition, subpanel; format: cell-based, human; details: for GI50: Homo sapiens
# ACHN = experiment: NCI-60 SRB growth inhibition, one-dose and five-dose; format: cell-based; details: Homo sapiens; for inhibition at 10 µM: read-out: percent growth inhibition
# SN12C = experiment: as above; format: cell-based; details: Homo sapiens; for inhibition at 10 µM: read-out: percent growth inhibition
# Leukaemia cell lines = experiment: NCI-60 SRB growth inhibition, subpanel; format: cell-based, human; details: for GI50: Homo sapiens
# [4] = test system: Ovarian cancer cell lines; experiment: NCI-60 SRB growth inhibition, subpanel; format: cell-based, human; details: for GI50: Homo sapiens
# UACC-62 = experiment: NCI-60 SRB growth inhibition, one-dose and five-dose; format: cell-based; details: Homo sapiens; for GI50: UACC-62; for inhibition at 10 µM: UACC-62, read-out: percent growth inhibition
# TK-10 = experiment: as above; format: cell-based; details: Homo sapiens; for GI50: TK-10; for inhibition at 10 µM: TK-10, read-out: percent growth inhibition
# Human VEGFR-2 = Human VEGFR-2 (Homo sapiens, UniProt P35968); experiment: VEGFR-2 inhibition assay; format: biochemical
# Human VEGFR-2, sequence (P35968 20-1356): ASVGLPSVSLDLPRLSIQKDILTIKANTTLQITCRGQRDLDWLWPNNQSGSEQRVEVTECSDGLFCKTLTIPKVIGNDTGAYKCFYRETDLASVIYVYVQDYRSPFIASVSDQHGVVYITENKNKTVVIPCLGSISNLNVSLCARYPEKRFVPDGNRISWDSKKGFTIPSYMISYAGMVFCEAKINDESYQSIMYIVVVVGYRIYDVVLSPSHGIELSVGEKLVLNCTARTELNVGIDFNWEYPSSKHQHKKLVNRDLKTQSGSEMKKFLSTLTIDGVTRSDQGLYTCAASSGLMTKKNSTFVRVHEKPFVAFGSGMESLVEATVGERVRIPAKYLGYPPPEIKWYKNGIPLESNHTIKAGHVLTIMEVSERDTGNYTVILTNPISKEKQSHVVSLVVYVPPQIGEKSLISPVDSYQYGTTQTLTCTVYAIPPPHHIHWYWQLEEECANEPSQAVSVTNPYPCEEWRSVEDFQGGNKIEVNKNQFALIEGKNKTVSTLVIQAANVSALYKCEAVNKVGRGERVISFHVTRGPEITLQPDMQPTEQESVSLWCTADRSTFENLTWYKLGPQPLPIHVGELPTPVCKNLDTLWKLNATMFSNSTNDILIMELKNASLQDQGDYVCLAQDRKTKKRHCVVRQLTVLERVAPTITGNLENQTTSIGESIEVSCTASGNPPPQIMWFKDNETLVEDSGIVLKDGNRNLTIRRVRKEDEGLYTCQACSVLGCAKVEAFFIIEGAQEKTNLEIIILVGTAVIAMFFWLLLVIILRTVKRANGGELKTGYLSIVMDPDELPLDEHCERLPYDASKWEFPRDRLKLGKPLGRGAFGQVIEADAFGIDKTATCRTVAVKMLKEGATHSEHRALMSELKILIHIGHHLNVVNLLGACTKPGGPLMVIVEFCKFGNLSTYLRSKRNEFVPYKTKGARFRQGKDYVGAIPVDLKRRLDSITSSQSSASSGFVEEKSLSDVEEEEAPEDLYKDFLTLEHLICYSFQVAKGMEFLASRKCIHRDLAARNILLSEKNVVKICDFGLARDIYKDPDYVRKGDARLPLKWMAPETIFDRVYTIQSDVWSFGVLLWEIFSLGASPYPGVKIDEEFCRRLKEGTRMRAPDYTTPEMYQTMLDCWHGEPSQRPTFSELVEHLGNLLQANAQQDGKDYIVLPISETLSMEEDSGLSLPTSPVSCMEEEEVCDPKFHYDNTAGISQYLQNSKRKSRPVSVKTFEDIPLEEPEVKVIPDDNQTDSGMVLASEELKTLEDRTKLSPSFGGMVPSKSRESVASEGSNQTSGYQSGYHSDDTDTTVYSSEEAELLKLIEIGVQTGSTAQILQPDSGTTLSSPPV
# Colon cancer cell lines = experiment: NCI-60 SRB growth inhibition, subpanel; format: cell-based, human; details: for GI50: Homo sapiens
compound,measurement,setting,value
"CC(=O)Nc1ccc(/C=C/C(=O)c2cccc(NCc3ccc(C)cc3)c2)cc1 [Compound 5f, (E)-N-(4–(3-(3-((4-methylbenzyl)amino)phenyl)-3-oxoprop-1-en-1-yl)phenyl)acetamide]",GI50,MDA-MB-231/ATCC,3.7 µM
same,inhibition at 10 µM,"MDA-MB-231/ATCC; MDA-MB-231, read-out: percent growth inhibition",89.4%
same,GI50,SW-620,2.17 µM
same,inhibition at 10 µM,SW-620,156%
same,GI50,SF-295,15.7 µM
same,inhibition at 10 µM,SF-295,27.7%
same,GI50,CNS cancer cell lines; read-out: GI50 MG-MID,9.73 µM
same,GI50,Melanoma cell lines; read-out: GI50 MG-MID,10.5 µM
same,GI50,M14,14 µM
same,inhibition at 10 µM,M14,54.7%
same,GI50,UO-31,6.78 µM
same,inhibition at 10 µM,"UO-31; UO-31, read-out: percent growth inhibition",50.2%
same,GI50,RPMI-8226,2.29 µM
same,inhibition at 10 µM,RPMI-8226,105%
same,GI50,NCI/ADR-RES,3.72 µM
same,GI50,UACC-257,14.2 µM
same,inhibition at 10 µM,UACC-257,15.7%
same,GI50,NSCLC cell lines; read-out: GI50 MG-MID,13.4 µM
same,GI50,HT29,10.7 µM
same,inhibition at 10 µM,HT29,128%
same,GI50,NCI-H23,10.4 µM
same,inhibition at 10 µM,NCI-H23,26.2%
same,GI50 at 48 h,[1],> 100 µM
same,Safety index,[2],>1
same,GI50,786-0,10.3 µM
same,inhibition at 10 µM,786-0,60.4%
same,GI50,SNB-75,12.5 µM
same,inhibition at 10 µM,SNB-75,32.3%
same,GI50,Renal cancer cell lines; read-out: GI50 MG-MID,11.4 µM
same,GI50,NCI-H460,4.18 µM
same,inhibition at 10 µM,NCI-H460,68%
same,GI50,[3]; read-out: GI50 MG-MID,10.1 µM
same,GI50,NCI-H322M,15.1 µM
same,inhibition at 10 µM,NCI-H322M,22.5%
same,GI50,SK-OV-3,25.8 µM
same,inhibition at 10 µM,SK-OV-3,31.6%
same,GI50,Breast cancer cell lines; read-out: GI50 MG-MID,7.03 µM
same,GI50,ACHN,13.2 µM
same,inhibition at 10 µM,ACHN,65%
same,GI50,SN12C,7.76 µM
same,inhibition at 10 µM,SN12C,88%
same,GI50,Leukaemia cell lines; read-out: GI50 MG-MID,2.73 µM
same,GI50,[4]; read-out: GI50 MG-MID,10.5 µM
same,GI50,UACC-62,10.8 µM
same,inhibition at 10 µM,UACC-62,48.7%
same,GI50,TK-10,13.8 µM
same,inhibition at 10 µM,TK-10,-10.1%
same,IC50,Human VEGFR-2,0.89 ± 0.009 µM
same,GI50,Colon cancer cell lines; read-out: GI50 MG-MID,7.86 µM
"CC(=O)Nc1ccc(CNc2cccc(C(=O)/C=C/c3cccnc3)c2)cc1 [Compound 5b, (E)-N-(4-(((3–(3-(pyridin-3-yl)acryloyl)phenyl)amino)methyl)phenyl)acetamide]",GI50,MDA-MB-231/ATCC,2.16 µM
same,GI50,SW-620,1.83 µM
same,inhibition at 10 µM,SW-620,169%
same,GI50,SF-295,10.3 µM
same,inhibition at 10 µM,SF-295,91.9%
same,GI50,CNS cancer cell lines; read-out: GI50 MG-MID,7.46 µM
same,GI50,CNS cancer cell lines; read-out: MG-MID GI50,7.46 µM
same,SI (Selectivity Index),CNS cancer cell lines; full panel MG-MID / CNS Cancer subpanel MG-MID,0.62
same,GI50,Melanoma cell lines; read-out: GI50 MG-MID,3.99 µM
same,GI50,Melanoma cell lines; read-out: MG-MID GI50,3.99 µM
same,SI (Selectivity Index),Melanoma cell lines; full panel MG-MID / Melanoma subpanel MG-MID,1.12
same,GI50,M14,2.91 µM
same,inhibition at 10 µM,M14,141%
same,GI50,UO-31,3.04 µM
same,GI50,RPMI-8226,1.92 µM
same,inhibition at 10 µM,RPMI-8226,125%
same,GI50,NCI/ADR-RES,3.12 µM
same,inhibition at 10 µM,NCI/ADR-RES; read-out: percent growth inhibition,91.1%
same,GI50,UACC-257,9.35 µM
same,inhibition at 10 µM,UACC-257,120%
same,GI50,NSCLC cell lines; read-out: GI50 MG-MID,7.24 µM
same,GI50,NSCLC cell lines; read-out: MG-MID GI50,7.24 µM
same,SI (Selectivity Index),NSCLC cell lines; full panel MG-MID / NSCLC subpanel MG-MID,0.64
same,GI50,HT29,2.19 µM
same,inhibition at 10 µM,HT29,182%
same,GI50,NCI-H23,3.22 µM
same,inhibition at 10 µM,NCI-H23,148%
same,GI50 at 48 h,[1],> 100 µM
same,Safety index,[2],>1
same,GI50,786-0,3.43 µM
same,inhibition at 10 µM,786-0,160%
same,GI50,SNB-75,8.99 µM
same,inhibition at 10 µM,SNB-75,31.8%
same,GI50,Renal cancer cell lines; read-out: GI50 MG-MID,5.2 µM
same,GI50,Renal cancer cell lines; read-out: MG-MID GI50,5.2 µM
same,SI (Selectivity Index),Renal cancer cell lines; full panel MG-MID / Renal Cancer subpanel MG-MID,0.89
same,GI50,NCI-H460,2.87 µM
same,inhibition at 10 µM,NCI-H460,107%
same,GI50,[3]; read-out: GI50 MG-MID,4.1 µM
same,GI50,[3]; read-out: MG-MID GI50,4.1 µM
same,SI (Selectivity Index),[3]; full panel MG-MID / Prostatic Cancer subpanel MG-MID,1.13
same,GI50,NCI-H322M,13.7 µM
same,inhibition at 10 µM,NCI-H322M,29.6%
same,GI50,SK-OV-3,13.9 µM
same,inhibition at 10 µM,SK-OV-3,15.2%
same,GI50,Breast cancer cell lines; read-out: GI50 MG-MID,2.45 µM
same,GI50,Breast cancer cell lines; read-out: MG-MID GI50,2.45 µM
same,SI (Selectivity Index),Breast cancer cell lines; full panel MG-MID / Breast Cancer subpanel MG-MID,1.90
same,GI50,ACHN,1.9 µM
same,inhibition at 10 µM,ACHN,165%
same,GI50,SN12C,2.01 µM
same,inhibition at 10 µM,SN12C,124%
same,GI50,Leukaemia cell lines; read-out: GI50 MG-MID,2.49 µM
same,GI50,Leukaemia cell lines; read-out: MG-MID GI50,2.49 µM
same,SI (Selectivity Index),Leukaemia cell lines; full panel MG-MID / leukaemia subpanel MG-MID,1.87
same,GI50,[4]; read-out: GI50 MG-MID,5.71 µM
same,GI50,[4]; read-out: MG-MID GI50,5.71 µM
same,SI (Selectivity Index),[4]; full panel MG-MID / Ovarian Cancer subpanel MG-MID,0.81
same,GI50,UACC-62,5.03 µM
same,inhibition at 10 µM,UACC-62,162%
same,GI50,TK-10,2.53 µM
same,inhibition at 10 µM,TK-10,85.3%
same,IC50,Human VEGFR-2,1.77 ± 0.021 µM
same,GI50,Colon cancer cell lines; read-out: GI50 MG-MID,3.26 µM
same,GI50,Colon cancer cell lines; read-out: MG-MID GI50,3.26 µM
same,SI (Selectivity Index),Colon cancer cell lines; full panel MG-MID / Colon Cancer subpanel MG-MID,1.43
